Like-named read-outs stand apart in the source and are kept apart here.

Usually IC50 stands for the concentration that inhibits the measured activity by half.

Series [1] in a line: Light sensitivity in DMSO (UV-vis). In kind it is physicochemical. How it is done: For the light sensitivity studies, DMSO solutions were prepared. The starting sample was separated equally for more portions, one was irradiated with diffuse light, while other portions were stored in the dark and measured only once.
The light sensitivity of H2L and its Ru-complex (as model metal compound) were tested by UV-vis spectrophotometry to further understand their behaviour. Samples were dissolved in DMSO and stored in the dark, while one portion was irradiated continuously by diffuse light. […] A relatively fast change is observed for the ligand in the first 1.5 h, and after that the spectrum has only minor changes (Figure 4A). […] Figure S16 depicts the spectral changes visible in Figure 4B. […] In the ligand, this may be due to a photoisomerisation process of the imine bond (Z/E isomers), which is quite common in hydrazones), but not in the Ru-complex, unless what is being observed in the complex solution is due to unbound ligand molecules.

Series [2] deals with HCT-116, A375, CT-26, B16F10 and HaCaT cell lines. The series can be described thus: Preliminary MTT antiproliferative screening on cell line panel. Conditions: 20 and 40 μM, 48 h.
Method: The MTT [32] and Guava ViaCount assays [33, 34] were used to assess cell viability in the absence (negative control) or presence of increasing concentrations of [Ni(HL)(acetate)], [Ru(HL)Cl(DMSO)] and 5-FU (positive control). Briefly, cells were plated at a concentration of 5 × 10^4 cells/mL in 96-well plates (200 μL/well) and cultured for 24 h in the culture conditions described above. Afterwards, supernatant was removed, and cells were incubated with [Ni(HL)(acetate)] and [Ru(HL)Cl(DMSO)] at concentrations ranging from 0.5 to 40 μM or from 0.5 to 100 μM for the 5-FU (positive control). Negative controls were cells maintained in complete culture medium. After 48 h, culture medium was discarded, cells were washed twice with PBS and 50 μL of MTT at 0.5 mg/mL in incomplete medium was added to all wells. After a 2 to 3 h incubation period at 37 °C and 5% CO2 environment, 100 μL DMSO was added to each well to solubilise the formazan crystals, and absorbance was measured at 570 nm using a microplate reader Model 680 (Bio-Rad, CA, USA). Between three to four independent experiments were carried out, with six replicates per condition. GraphPad Prism®8 (GraphPad Software, San Diego, CA, USA) was used to analyse cell proliferation and values were plotted and fit to a standard log dose-response curve. The IC50 values were calculated using Equation (2) [35]:log IC50 = log X1 + {[(Y1 − (Y0)/2)]/(Y1 − Y2)} × (log X2 − log X1)(2) where, Y0/2 is the half-cell density of the negative control; Y1 is the cell density above Y0/2; X1 is the concentration corresponding to Y1; Y2 is the cell density below Y0/2; X2 is the concentration corresponding to Y2. The IC50 was determined by linear interpolation between X1 and X2.
Thus, to evaluate the antiproliferative properties of the newly synthetised metal complexes, a preliminary screening was performed using human (HCT-116 and A375) and murine (CT-26 and B16F10) colon cancer and melanoma cell lines, respectively. […]
A short description of series [3]: UV-vis spectrophotometric titration for proton dissociation constants. In kind it is physicochemical. To be noted: for pKa: 60% (v/v) DMSO/H2O solvent mixture, 60% (v/v) DMSO/H2O, I = 0.10 M (KCl), 25 °C. How it is done: The pH-potentiometric titrations for the calibration of the electrode system were performed in 30% (v/v) and 60% (v/v) DMSO/H2O solvent mixtures using 0.10 M KCl background electrolyte at 25.0 ± 0.1 °C as described in our previous works.
A Thermo Evolution 220 spectrophotometer was used to record the UV-visible (UV-vis) spectra in the 260 to 750 nm window. The path length was varied between 2 and 50 mm. As a result of the limited solubility of the compounds in water, the spectrophotometric titrations were performed to determine the proton dissociation constants (pKa) of the ligand and its complex at 5 μM concentration using 5 cm path length. Due to the light sensitivity of the studied compounds, the samples were covered and were kept in the dark during the titrations. The starting sample volume was 50 mL. These titrations were performed in the pH range 2.0–12.5 (30% (v/v) DMSO/H2O) and 2.0–14.0 (60% (v/v) DMSO/H2O). Samples were deoxygenated by bubbling purified argon through them for approximately 10 min prior to the measurements and argon was also passed over the solutions during the spectrophotometric titrations. Calculation of the proton dissociation constants was performed with the computer program PSEQUAD [28].
Titrations were performed first in 30% (v/v) DMSO/H2O mixture due to the limited water solubility of the ligand. The sample was protected from light and, for a given portion of the sample, the UV-vis spectrum was recorded only once. […] Following this experiment, the titration was repeated in 60% (v/v) DMSO/H2O mixture (Figure 7), and no precipitation was found in the whole pH range (1.73−13.67) under this condition. However, only three deprotonation steps were observed, most probably because one of the deprotonation steps was already completed at the starting pH.
To elucidate the pKa assignment, 2-hydrazinobenzothiazole (considered as a fragment of the title ligand) was titrated under similar conditions to monitor the spectral changes during the deprotonation of the benzothiazole moiety.

Series [4] relates to HCT-116 colon cancer cells. The experiment in a line: MTT antiproliferative assay, HCT-116. In kind it is cell-based, human. Conditions: HCT-116, MTT, 48 h incubation. How it is done: (§1) Murine colon cancer CT-26 (ATCC® CRL-263™) cells were cultured in RPMI-1640, supplemented with 10% foetal bovine serum (FBS) and 100 IU/mL of penicillin and 100 μg/mL streptomycin (Gibco, Thermo Fisher Scientific, Waltham, MA, USA), hereafter designated as complete culture medium. Human colon cancer HCT-116 (ATCC® CCL-247™), human melanoma A375 (ATCC® CCL-1619™), murine melanoma B16F10 (ATCC® CCL-6475™) cells and human epidermal keratinocytes (HaCaT) were maintained in Dulbecco’s modified Eagle’s medium (DMEM) with high-glucose (4500 mg/L) (Sigma-Aldrich, St. Louis, MO, USA), supplemented with 10% FBS and 100 IU/mL of penicillin and 100 μg/mL streptomycin (Gibco, Thermo Fisher Scientific, Waltham, MA, USA), also designated as complete culture medium. The cell lines were maintained at 37 °C in a 5% CO2 environment and cells were trypsinised every 2–3 days when 80% confluence was reached.
(§2) Negative controls were cells maintained in complete culture medium.

Series [5] concerns the target bovine serum albumin (BSA) (Bos taurus, UniProt P02769). The experiment in a line: Albumin binding by fluorescence quenching and circular dichroism. Conditions: BSA ca. 20–25 μM, bands centred at ca. 360 nm, compound 5 to 70 μM. How it is done: The concentration of BSA in the experiments was ca. 1.5 μM (in aqueous PBS). The fluorescence emission spectra were recorded between 310 and 575 nm, with λex = 295 nm. Successive additions of the complexes were done directly to the cuvette (optical path 1 cm) and the fluorescence emission spectra were recorded for each one under the same conditions. Blank assays for each sample, consisting in solutions with the same concentration of complex and no BSA, were recorded and subtracted to the corresponding emission spectra containing the fluorophore. The UV-vis spectra of the sample solutions were used to correct the emission spectra, minimizing inner filter and reabsorption phenomena interference.
The concentration of BSA in the experiments was ca. 20–25 μM (in aqueous PBS). The circular dichroism (CD) spectra are an average of three scan accumulations, recorded between 300 and 500 nm, with bandwidth of 1 nm and response of 2 s, using a scanning speed of 100 nm/min. Successive additions of the complexes stock solutions in DMSO were done directly to the cuvette (1 cm) and the CD spectra were recorded under the same conditions after 10 min equilibration. Induced CD spectra were obtained as the CD spectrum of compound-BSA mixture minus the CD spectrum of BSA alone and are expressed as ellipticity in millidegrees.
On the technique in general: CD spectra are sensitive to the conformation of chiral molecules.

Series [6] has as its system CT-26 colon cancer cells. The experiment in a line: MTT antiproliferative assay, CT-26. In kind it is cell-based, murine. Conditions: CT-26, MTT, 48 h incubation. How it is done:
as §1, §2

Series [7] is described as follows: Shake-flask n-octanol/buffer distribution coefficient (D7.4). In kind it is physicochemical. Conditions: n-octanol/buffered aqueous solution, 25 °C, read-out: logD7.4. How it is done:
The distribution coefficient values (D7.4) of the compounds were determined by the traditional shake-flask method in n-octanol/buffered aqueous solution at pH 7.40 (10 mM HEPES buffer, in the absence or in the presence of 0.10 M KCl) at 25.0 ± 0.2 °C. The samples and stock solutions were protected from light until the spectrophotometric concentration determination. The ligand and complex were dissolved at 150 and 100 μM concentrations in n-octanol, respectively. n-Octanol was presaturated with the HEPES solution with the given KCl concentration. The aqueous solution and n-octanol ratio was 9:1 (instead of the usual 1:1 ratio due to the high lipophilicity of the compounds). […] After separation, UV-vis spectra of the compounds in the n-octanol phase were recorded and compared to the spectra of the n-octanol stock solution. D7.4 values were calculated as in the following Equation (1): (1) D7.4=Aoct,1/Aoct,0−Aoct,1×Vwater phase/Voctanol phase where Aoct,0 and Aoct,1 are the absorbance values of the n-octanol phase before and after separation, respectively, Vwater phase and Voctanol phase are the volumes of the two phases.
The distribution coefficients (D7.4) for H2L and the Ru-complex (as model complex) were determined using HEPES buffer (pH = 7.4) for the aqueous phase. Distribution was measured in the absence and presence of 100 mM KCl. […]

Series [8] has as its system HCT-116 cells. The series can be described thus: Cell cycle analysis by PI flow cytometry, HCT-116. In kind it is cell-based, human. To be noted: HCT-116, 24 h, sub-toxic concentrations. How it is done:
(§3) To understand the potential effects of [Ni(HL)(acetate)] and [Ru(HL)Cl(DMSO)] on cell cycle progression, CT-26 and HCT-116 cells were used. Briefly, cells were plated at a density of 5 × 10^4 cells/mL in 6-well plates (2 mL) and allowed to grow for 24 h at 37 °C with 5% CO2. CT-26 cells were then incubated with [Ni(HL)(acetate)] or [Ru(HL)Cl(DMSO)] at concentrations of 5 and 10 μM or 10 and 20 μM, respectively. For HCT-116 cell line, the tested concentrations were 5 and 7.5 μM, and 7.5 and 12.5 μM for [Ni(HL)(acetate)] and [Ru(HL)Cl(DMSO)], respectively. The positive control group, 5-FU, was tested at 0.5 and 2 μM and 20 and 40 μM for CT-26 and HCT-116, respectively. Negative control group was constituted by cells in the presence of complete culture medium. After a 24 h incubation period, cells were collected by centrifugation at 850× g for 5 min at 4 °C, suspended in 500 µL of ice-cold PBS, and fixed with 500 µL ice-cold 80% ethanol (−20 °C), added drop-by-drop, under gentle mixing. Prior to the analysis, samples were kept at 4 °C for at least 16 h. […] The ModFit LT™ 5.0 software was used to analyse the data and the percentages of cells in each cell cycle phase was determined (Verity Software House, Topsham, ME, USA).
(In general: A flow cytometer gives signals particle by particle.)

In series [9] the test system is CT-26 cells. The series can be described thus: Cell cycle analysis by PI flow cytometry, CT-26. In kind it is cell-based, murine. To be noted: CT-26, 24 h, sub-toxic concentrations. How it is done: as §3
The test system of series [10] is HCT-116 cells. The experiment in a line: Wound-healing migration assay, HCT-116. In kind it is cell-based, human. Conditions: HCT-116, 12.5 μM, at 22 h (control 50%). How it is done: To assess cellular migration in the presence or absence of tested compounds, HCT-116 and CT-26 cells were plated at 1.5 × 10^5 and 3 × 10^5 cells/mL in a 12-well plate (1 mL/well) and were allowed to adhere and grow until reaching around 80–90% confluence. A sterile 10 μL pipette tip was used to wound the cell monolayer, followed by a washing step with PBS to remove debris. Then, cells were incubated with the tested compounds suspended in RPMI-1640 (CT-26) or DMEM media (HCT-116) supplemented with 2% FBS and 100 IU/mL of penicillin and 100 μg/mL streptomycin (Gibco, Thermo Fisher Scientific, Waltham, MA, USA), and hereafter designated as RPMI 2% and DMEM 2%, respectively. Under the above mentioned culture conditions, CT-26 cells were incubated with [Ni(HL)(acetate)] or [Ru(HL)Cl(DMSO)] at concentrations of 10 and 15 μM, respectively. […] The positive control, 5-FU, was tested at 1.5 and 40 μM for CT-26 and HCT-116, respectively. Negative control group was constituted by cells maintained in RPMI 2% (CT-26) and DMEM 2% (HCT-116). Images of the wound closure were taken beneath the stage of a Zeiss Axiovert 200 inverted microscope, using a 10× objective and a digital camera (CoolSNAP EZ, Photometrics, Huntington Beach, CA, USA) and recorded by the Metafluor Software at 0, 2, 4, 8, 18, 20 and 22 h following cell monolayer scratching (Molecular Devices, Sunnyvale, CA, USA). […]

Sequence of bovine serum albumin (BSA) (P02769 25-607): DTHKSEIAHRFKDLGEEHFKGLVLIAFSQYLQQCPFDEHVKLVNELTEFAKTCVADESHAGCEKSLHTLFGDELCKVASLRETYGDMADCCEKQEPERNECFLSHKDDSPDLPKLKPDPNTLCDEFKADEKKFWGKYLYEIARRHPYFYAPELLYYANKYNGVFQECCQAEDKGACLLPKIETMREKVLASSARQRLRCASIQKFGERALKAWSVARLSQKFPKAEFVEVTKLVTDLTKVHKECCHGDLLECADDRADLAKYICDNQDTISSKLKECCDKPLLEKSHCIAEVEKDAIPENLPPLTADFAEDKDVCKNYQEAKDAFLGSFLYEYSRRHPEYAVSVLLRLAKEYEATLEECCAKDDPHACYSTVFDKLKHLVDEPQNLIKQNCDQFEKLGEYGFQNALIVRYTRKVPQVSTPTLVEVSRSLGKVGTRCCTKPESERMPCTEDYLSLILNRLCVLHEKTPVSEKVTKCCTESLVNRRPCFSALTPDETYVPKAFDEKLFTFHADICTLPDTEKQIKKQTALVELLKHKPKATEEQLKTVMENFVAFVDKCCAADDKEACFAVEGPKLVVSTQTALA

For `Oc1cccc2ccc(/C=N/Nc3nc4ccccc4s3)nc12` [H2L, (E)-2-((2-(benzo[d]thiazol-2-yl)Hydrazono)Methyl)Quinolin-8-ol], the light sensitivity entry in series [1] (irradiated continuously by diffuse light) is listed as “strong light sensitivity”. Also, the “spectral changes in the dark” value in [1] (stored in the dark, 4 days of monitoring) is listed as “only a small change”. Also, the “antiproliferative / cytotoxic effect in preliminary screening” value in series [2] is recorded as “high cytotoxicity”. Further, in [3] (30% (v/v) DMSO/H2O, 5 μM), the “pH range of precipitation” value is recorded as 3.8−11.0. In addition, the pKa in series [3] (read-out: pKa2) amounted to 1.99 ± 0.03; in series [3] (read-out: pKa3) it was 9.09 ± 0.04; in series [3] (read-out: pKa4) it was 12.99 ± 0.04. The IC50 in series [4] (Homo sapiens) was found to be 3 ± 0.8 µM; in [6] (Mus musculus, CT26) it was 1.8 ± 0.4 µM. The “induced CD bands with BSA” value in series [5] is given as “high intensity induced CD bands”. Also, the logD at 4 h in series [7] (pH 7.4, n-octanol/10 mM HEPES pH 7.4, 0 mM KCl) turned out to be 2.8; in series [7] (pH 7.4, n-octanol/10 mM HEPES pH 7.4, 100 mM KCl) it was 3.

With `CC(=O)[O][Ni][O]c1cccc2ccc(C=NNc3nc4ccccc4s3)nc12` [[Ni(HL)(acetate)]], the cell cycle arrest entry in series [8] was “no such effect”; in [9], “arrested cell cycle at S phase”. In series [10], this compound showed a maximum wound closure of 32%. For the same compound, the IC50 in series [4] came out at 8.6 ± 2 µM; in series [6], 11 ± 2.3 µM. In addition, the “induced CD bands with BSA” value in series [5] is “high intensity induced CD bands”.

Source of the values: publication PMC9785144, “Metal Coordination and Biological Screening of a Schiff Base Derived from 8-Hydroxyquinoline and Benzothiazole” (Pharmaceutics, 2022).
